The test system of one data set is creatine kinase. Put plainly: creatine kinase activity levels in mdx mice. The class given is in vivo, mouse. As to conditions: single i.v. dose 30 mg/kg, two and four weeks after injection. The procedure:
(§1) Each experimental condition was replicated in five mdx mice. Five wild-type mice (healthy mice) were also dosed with vehicle control (saline).
All mice in this Example were further tested for creatine kinase activity levels two weeks and four weeks after injection.

Data set [1] deals with mdx mice (DMD mouse model). The experiment in a line: cage running wheel test. The format is in vivo. To be noted: single i.v. dose 30 mg/kg, four weeks after injection, 24-hour period. The procedure:
as §1
Four weeks after injection, the activity of all treated mice was determined using a cage running wheel test. Each mouse was individually placed into cages with a running wheel for a 24-hour period. The 24-hour period involved five hours of light on followed by thirteen hours of darkness, and ending with six hours of light. The total distance traveled (in meters, m) by each mouse on the running wheel was continuously collected throughout the 24-hour period and subsequently binned into discrete one-hour increments.

In data set [2] the test system is mdx mice (DMD mouse model). The experiment in a line: open field chamber experiment with hind limb fatigue challenge. The format is in vivo. As to conditions: single i.v. dose 30 mg/kg, two weeks after injection. How it is done:
as §1
Two weeks after injection, the functional activity of all treated mice was determined using an open field chamber experiment. The experiment involved three consecutive stages: (1) a 10-minute period during which each mouse was placed into an open field chamber; (2) a 10-minute period during which each mouse was subjected to a hind limb fatigue challenge; and (3) a 10-minute period during which each mouse was placed into an open field chamber. The total horizontal distances traveled during stages (1) and (3) were collected. The percent change in the total distance traveled between the first and second tests.

For “MDX-ASO: naked exon 23 skipping PMO ASO; GGCCAAACCUCGGCUUACCUGAAAU (SEQ ID NO: 277) (PMO chemistry, chemistry not fully specified)”, the “creatine kinase activity levels” value with creatine kinase is given as “no significant benefit”. In addition, the “distance traveled on running wheel during the dark period” value in data set [1] is “considerably shorter distances”. In data set [2], the “average decrease of total horizontal distance traveled during stage (3) relative to stage (1)” value was “about 85%” and the “functional performance in open field chamber experiment” value was “same compromised functional performance as those treated with vehicle”.

The values above are taken from US20230111212A1, “MUSCLE TARGETING COMPLEXES AND USES THEREOF FOR TREATING DYSTROPHINOPATHIES” (Dyne Therapeutics, Inc., priority 2020, published 2023).
